One assay deals with normal human T-cells. Type of assay: cell-based. The note with it: for fold increase in TNFα secretion: FIG. 1A, DTX-K 100 nM, other blockers at highest concentration used; for effect on DTX-K-induced TNF-α secretion: 100 μM blocker added 5 min before 100 nM DTX-K, FIG. 2K. Here is the method:
Human T-Cells: Normal human T-cells were purified from peripheral blood of healthy donors as described (Levite et al, 2000; Ganor et al, 2003; Levite t al, 1998), and the resulting cell population, containing ≧90% T-cells, was suspended in RPMI medium supplemented with 10% FCS, 1% L-Glutamine and antibiotics (Biological Industries, Bet Haemek, Israel) and maintained at 2×10^6 cells/ml (37° C./5% CO2).
Determination of TNF-α, IFN-γ, IL-10 and IL-4 by ELISA: Freshly-purified normal resting human T-cells (2×10^6/ml) were incubated in 24-well plates (Costar, Corning, N.Y.) and the various channel blockers were added. […] Cytokine levels were measured in supernatants after 24 hours for TNF-α and IFN-γ and after 72 hours for IL-10 and IL-4, by quantitative sandwich ELISA (R&D, Minneapolis, Minn.), according to the manufacturer's instructions. […]
These 12 blockers were selected on the basis of their reported ability to block most types of K^+, Na^+, Ca^2+ and Cl^− channels expressed in T-cells (Deutsch et al, 1986; Lewis et al, 1995; Lewis et al, 1988; Rader et al, 1996; Freedman et al, 1995; Koo et al, 1997; Lin et al, 1993; Ishida et al, 1993; Jensen et al, 1999; Kotturi et al, 2003; Phipps et al, 1996; Verheugen et al, 1997; Levite et al, 2000; Chandy et al, 1984). The levels of TNFα secreted into the culture media were tested 24 hours later by ELISA. For positive control, the cells were exposed to the potent phorbol ester PMA, know to activate T-cells in a non-specific manner. The results are shown in FIG. 1A and represent fold increase ±SD TNF-α secretion tested in 2-3 independent experiments. Each ion channel blocker was examined in at least two independent experiments, and at several concentrations covering its effective range (see Materials and Methods). The numbers in each figure next to each blocker represent the highest molar concentration used. Statistical analysis: *P=0.0001, 0.0005, 0.0011 and 0.0005 vs. untreated for MgTX, KTX, DTX-K and PMA, respectively (Student's t-test).

For assay [1], the system named is melanoma in-transit metastases. The settings on record: ILP; cited from earlier work.
Another assay has as its system ion channels. The settings on record: manufacturer's data sheets and/or the literature; cited from earlier work.
In the next assay the target is T1, Kv1.3 (Homo sapiens, UniProt P22001).
T1 construct: host or cells: Xenopus laevis oocytes
T1 sequence (P22001 whole entry): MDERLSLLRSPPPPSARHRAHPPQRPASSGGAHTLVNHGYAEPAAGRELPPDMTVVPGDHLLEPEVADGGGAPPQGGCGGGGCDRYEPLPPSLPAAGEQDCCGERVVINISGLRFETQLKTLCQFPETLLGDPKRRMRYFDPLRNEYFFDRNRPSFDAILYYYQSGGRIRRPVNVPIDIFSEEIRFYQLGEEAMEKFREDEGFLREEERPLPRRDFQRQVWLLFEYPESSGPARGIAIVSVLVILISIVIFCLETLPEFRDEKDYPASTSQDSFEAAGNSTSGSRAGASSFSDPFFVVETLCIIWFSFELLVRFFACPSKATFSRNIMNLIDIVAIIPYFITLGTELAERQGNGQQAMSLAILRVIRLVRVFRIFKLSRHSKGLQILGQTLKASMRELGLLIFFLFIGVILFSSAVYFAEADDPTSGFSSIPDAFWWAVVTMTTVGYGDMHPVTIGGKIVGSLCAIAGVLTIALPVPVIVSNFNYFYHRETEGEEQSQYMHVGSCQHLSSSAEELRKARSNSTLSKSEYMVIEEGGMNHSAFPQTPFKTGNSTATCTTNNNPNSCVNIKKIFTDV
The note with it: cited from earlier work.

The target of assay [2] is T2, Kv1.1 (Homo sapiens, UniProt Q09470). The settings on record: cited from earlier work.
T2 sequence (Q09470 whole entry): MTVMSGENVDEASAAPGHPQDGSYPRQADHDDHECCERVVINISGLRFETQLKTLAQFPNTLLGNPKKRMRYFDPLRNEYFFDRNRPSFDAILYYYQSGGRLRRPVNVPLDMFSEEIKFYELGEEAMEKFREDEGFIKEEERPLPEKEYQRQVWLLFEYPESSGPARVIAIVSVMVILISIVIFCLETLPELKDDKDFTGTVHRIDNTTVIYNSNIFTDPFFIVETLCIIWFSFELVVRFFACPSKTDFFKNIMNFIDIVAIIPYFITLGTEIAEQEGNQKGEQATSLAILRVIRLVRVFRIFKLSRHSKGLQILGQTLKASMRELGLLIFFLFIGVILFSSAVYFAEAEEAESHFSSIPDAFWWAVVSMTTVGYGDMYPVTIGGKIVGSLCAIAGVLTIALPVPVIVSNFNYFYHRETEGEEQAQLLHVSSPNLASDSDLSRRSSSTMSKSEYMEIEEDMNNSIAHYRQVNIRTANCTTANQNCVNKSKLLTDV
The next assay has as its target Kv1.2 (Homo sapiens, UniProt P16389). The note with it: cited from earlier work.
For the next assay, the system named is Kv1.1, Kv1.2 and Kv1.3. The note with it: cited from earlier work.
Assay [3] concerns the target Kv1.1 voltage-gated potassium channel of normal human peripheral T-cells (human) (UniProt Q09470). The assay can be described thus: cell-based or functional assay.
In assay [4] the target is T2, Kv1.1. The note with it: Gutman et al, 2003; cited from earlier work.
The target of another assay is Shaker B K^+-channels (Drosophila melanogaster, UniProt P08510). The settings on record: at 100 nM concentration; cited from earlier work.
Shaker B K^+-channels, sequence (P08510 whole entry): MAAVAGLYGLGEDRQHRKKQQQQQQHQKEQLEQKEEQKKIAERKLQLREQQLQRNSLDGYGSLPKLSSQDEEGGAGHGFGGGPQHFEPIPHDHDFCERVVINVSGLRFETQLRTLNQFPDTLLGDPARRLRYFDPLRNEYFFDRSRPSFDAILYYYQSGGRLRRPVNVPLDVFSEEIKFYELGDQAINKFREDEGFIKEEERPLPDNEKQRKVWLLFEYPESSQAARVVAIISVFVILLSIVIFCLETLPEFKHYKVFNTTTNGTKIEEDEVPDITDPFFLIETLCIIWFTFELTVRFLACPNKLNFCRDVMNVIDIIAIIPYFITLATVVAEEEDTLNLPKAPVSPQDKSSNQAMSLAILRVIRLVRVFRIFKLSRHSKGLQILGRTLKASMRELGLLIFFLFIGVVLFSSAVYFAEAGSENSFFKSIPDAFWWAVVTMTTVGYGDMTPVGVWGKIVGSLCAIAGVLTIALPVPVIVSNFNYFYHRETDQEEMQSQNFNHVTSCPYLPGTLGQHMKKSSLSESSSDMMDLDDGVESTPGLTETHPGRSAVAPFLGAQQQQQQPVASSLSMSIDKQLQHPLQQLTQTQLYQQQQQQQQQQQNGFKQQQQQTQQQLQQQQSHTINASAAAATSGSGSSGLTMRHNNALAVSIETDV
For assay [5], the system named is cloned Kv1.1, Kv1.2 and Kv1.6 channels. The note with it: cited from earlier work.
A further assay has as its system high-grade STS. The note with it: cited from earlier work.
Assay [6] deals with host ED1-positive cells in the liver. The settings on record: administration of TNF-α into the brain; Campbell et al, 2005; cited from earlier work.
The mark [7] stands for this setting: 24 hours, several effective concentrations, no other stimulus.
The mark [8] stands for this setting: multicenter trials in Europe, ILP for STS.

Read-outs that look alike come from different tables or passages of the source. No end group written: not given here.

This is an account of results in patent US20090022739A1, “MODULATING THE KV1.1 VOLTAGE-GATED POTASSIUM CHANNEL IN T-CELLS FOR REGULATING THE […] AND SECRETION OF TUMOR NECROSIS FACTOR ALPHA (tnf-ALPHA) AND TREATING HUMAN DISEASE OR INJURIES MEDIATED BY […] HIGH OR LOW LEVELS OF TNF-ALPHA” (priority 2005, published 2009).

Kv1.1 voltage-gated potassium channel of normal human peripheral T-cells (human), sequence (Q09470 whole entry): as the sequence (Q09470 whole entry) above

In the case of `NC1=N[C@H](O)[C@H]2[C@H]3O[C@]4(O)O[C@@H]([C@@H](O)[C@@]2(N1)[C@@H]4O)[C@]3(O)CO` [TTX, Tetrodotoxin], the TNF-α up-regulation result in the assay with normal human T-cells is “no significant TNF-α up-regulation”.

Take `N[C@@H](Cc1ccc(N(CCCl)CCCl)cc1)C(=O)O` [melphalan]: in [1], the “complete response (CR) rate” value is about 50% and the overall response rate is 80%.

In the case of `C=C[C@H]1C[N@@]2CC[C@H]1C[C@H]2[C@H](O)c1ccnc2ccc(OC)cc12` [Quinine], the TNF-α up-regulation result in the assay with normal human T-cells (setting [7]) was “no significant TNF-α up-regulation”. The effective concentrations in the assay with ion channels is 1 to 10 µM.

Turning to `CC[N+](CC)(CC)CC` [TEA, Tetraethylammonium], the TNF-α up-regulation entry with normal human T-cells is reported as “no significant TNF-α up-regulation”.

What is called IC50 is the midpoint of a concentration-inhibition curve. Consider “maurotoxins: natural and synthetic maurotoxins, four disulfide bridges scorpion toxin (VSCTGSKDCYAPCRKQTGCPNAKCINKSCKCYGC; disulfide (positions not given here); also: four disulfide bridges, pairing not given here; UniProt P80719 1-34, looked up)”, for which the 50% inhibitory concentration (IC50) in the assay with Kv1.3 (Xenopus oocytes, Rochat et al, 1998, read-out: half-effects (IC50), Kv1.3) was about 150 nM; with Kv1.1 [2] (Xenopus oocytes, Rochat et al, 1998, read-out: half-effects (IC50), Kv1.1), about 40 nM; with Kv1.2 (Xenopus oocytes, Rochat et al, 1998, read-out: half-effects (IC50), Kv1.2), about 0.8 nM.

As to “rHongotoxin-1: Centruroides limbatus toxin, blocks Kv1.1, Kv1.2 and Kv1.3 (TVIDVKCTSPKQCLPPCKAQFGIRAGAKCMNGKCKCYPH; ends and bridges not checked; cysteine pairing not given here; UniProt P59847 1-39, looked up)”, the “blocking concentration, Kv1.1, Kv1.2 and Kv1.3” value in the assay with Kv1.1, Kv1.2 and Kv1.3 was 0.1 to 0.2 pM.

For the compound “Kaliotoxin (from UniProt P24662 1-38) (peptide)”, the fold increase in TNFα secretion by human T-cells (ELISA, 24 h) in assay [3] was determined as 15.1 fold.

One may read the Ki as the dissociation constant of the complex between target and ligand, obtained from inhibition or displacement. As to “Kaliotoxin (GVEINVKCSGSPQCLKPCKDAGMRFGKCMNRKCHCTPK) [KTX]”, the Ki with Kv1.1 [4] was 20 nM. Besides, the Kd is 0.1 nM with Kv1.3 (bath application to Xenopus laevis oocytes, Mourre et al, 1999, read-out: K(d), recombinant Kv1.3); 1.5 nM in the assay with Kv1.1 [2] (bath application to Xenopus laevis oocytes, Mourre et al, 1999, read-out: K(d), recombinant Kv1.1); 25 nM in the assay with Kv1.2 (bath application to Xenopus laevis oocytes, Mourre et al, 1999, read-out: K(d), recombinant Kv1.2). Besides, in the assay with normal human T-cells (24 hours, no other stimulus), the “fold increase in TNFα secretion” value was 15.1 fold increase. Moreover, the effective concentrations with ion channels is 0.001 to 0.1 µM.

As for rCharybdotoxin [CTX], in the assay with normal human T-cells (setting [7]), the TNF-α up-regulation result is listed as “no significant TNF-α up-regulation”.

Turning to `Clc1ccccc1C(c1ccccc1)(c1ccccc1)n1ccnc1` [CLT, Clotrimazole], in the assay with normal human T-cells, the TNF-α up-regulation entry is “no significant TNF-α up-regulation”.

Consider “rMargatoxin (TIINVKCTSPKQCLPPCKAQFGQSAGAKCMNGKCKCYPH) [MgTX]”, for which, in the assay on normal human T-cells (24 hours, no other stimulus), the “fold increase in TNFα secretion” value was 6.5 fold increase.

For `CCCCCCCCCCCCCC(=O)O[C@@H]1[C@@H](C)[C@@]2(O)[C@@H](C=C(CO)C[C@]3(O)C(=O)C(C)=C[C@@H]23)[C@@H]2C(C)(C)[C@]12OC(C)=O` [PMA], the “fold increase in TNFα secretion” value with normal human T-cells (24 hours, no other stimulus) amounted to 41.3 fold increase.

`O=C(O)c1cc([N+](=O)[O-])ccc1NCCCc1ccccc1` [NPPB]: the “effect on DTX-K-induced TNF-α secretion” value in the assay on normal human T-cells (24 hours) is “no such interrupting effect”. In addition, the TNF-α up-regulation result with normal human T-cells (setting [7]) is on record as “no significant TNF-α up-regulation”. Further, the effective concentrations in the assay on ion channels was 100 to 200 µM.

Take `COC(=O)C1=C(C)NC(C)=C([N+](=O)[O-])C1c1ccccc1C(F)(F)F` (stereo not drawn) [+Bay K, R-(+)-Bay K8644]: the “effect on DTX-K-induced TNF-α secretion” value in the assay on normal human T-cells (24 hours) is listed as “prevented completely”. Besides, the TNF-α up-regulation entry in the assay with normal human T-cells (setting [7]) was “no significant TNF-α up-regulation”.

As for `Nc1ccncc1` [4-AP, 4-Aminopyridine], the TNF-α up-regulation entry with normal human T-cells (setting [7]) is given as “no significant TNF-α up-regulation”.

With `N#Cc1cc2[nH]c(=O)c(=O)[nH]c2cc1[N+](=O)[O-]` [CNQX], in the assay with normal human T-cells (setting [7]), the TNF-α up-regulation entry is listed as “no significant TNF-α up-regulation”.

Regarding “Pi4: 38-amino acid long peptide from the venom of the scorpion Pandinus imperator (IEAIRCGGSRDCYRPCQKRTGCPNAKCINKTCKCYGCS; UniProt P58498 1-38, looked up)”, in the assay with Shaker B K^+-channels, the “block of Shaker B K^+-channels” value is “blocks completely and reversibly”.

As for Alpha-dendrotoxin, in assay [5], the “concentration range blocking cloned Kv1.1, Kv1.2 and Kv1.6 channels” value is given as “low nanomolar range”.

“rMargatoxin (from UniProt P40755 1-39) (peptide)” returned a fold increase in TNFα secretion by human T-cells (ELISA, 24 h) in assay [3] of 6.5 fold.

Take TNF-α: the “major response rates, median” value with high-grade STS (largest single-center studies in STS, range 58%-91%) is 76%. In the assay with high-grade STS (largest single-center studies in STS, range 58%-97%), the “median limb salvage rate” value is on record as 84%. In addition, in the assay on high-grade STS (setting [8]), the “median limb salvage rate” value is reported as 82% and the overall response rate is reported as 76%. In assay [1], the “complete response (CR) rate” value is 70%-90% and the overall response rate is recorded as 95%-100%. Besides, the “increase in the number of host ED1-positive cells accumulated in the liver” value in assay [6] is on record as “up to two fold increase”.
